Molecules are shown by their SMILES. Bounds are passed on as bounds.

The target in this test is Glycogen synthase kinase-3 beta (Homo sapiens, UniProt P49841). The test is described as follows: GSK3beta kinase inhibitor potency, dose response, biochemical, luminescence, cell-free homogeneous, retest (AID 434954).
Chain of Glycogen synthase kinase-3 beta (P49841 whole entry): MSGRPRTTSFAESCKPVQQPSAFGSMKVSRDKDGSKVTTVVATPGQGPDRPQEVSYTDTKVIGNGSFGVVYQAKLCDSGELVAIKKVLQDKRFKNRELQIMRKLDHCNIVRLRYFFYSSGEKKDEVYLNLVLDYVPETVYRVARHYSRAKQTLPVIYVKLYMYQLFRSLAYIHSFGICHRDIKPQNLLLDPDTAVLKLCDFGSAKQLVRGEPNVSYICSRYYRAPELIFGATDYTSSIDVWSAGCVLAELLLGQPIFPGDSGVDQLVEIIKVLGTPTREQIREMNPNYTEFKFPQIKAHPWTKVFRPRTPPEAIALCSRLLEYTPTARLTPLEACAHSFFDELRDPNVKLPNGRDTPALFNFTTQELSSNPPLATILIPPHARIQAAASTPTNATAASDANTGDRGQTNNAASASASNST
In the case of `CCOc1ccc(NC(=O)Nc2cnccn2)cc1` [SMR000297712], the concentration for a half-maximal effect (EC50) (commonly the concentration giving half of the maximal effect) is more than 300 µM.
As to `Nc1nonc1-n1nnc(C(=O)NN=Cc2cc(Cl)ccc2O)c1CN1CCCCCC1` [SMR000620619], it took 8.67 µM to reach a half-maximal effect (EC50).
`CC(=O)Nc1cccc2c1C(=O)NC2=O` [N-(1,3-dioxoisoindol-4-yl)acetamide] showed an EC50 of 31.7 µM. Compared with the last molecule, the EC50 is about 3.7-fold higher.
Molecule `COc1ccc(-c2ccc3c(N)c(C(=O)c4cccc(OC)c4)sc3n2)cc1` [SMR000160395] displayed a concentration for a half-maximal effect (EC50) of more than 300 µM.
`CC(C)Cn1nc(NC(=O)C(C)(C)C)c2cc3ccccc3nc21` [MLS000081069] came in with an EC50 of 71.4 µM.
Turning to `COCCn1c(SCC(=O)Nc2ccc(Cl)c(S(=O)(=O)N(C)C)c2)nc2ccccc21` [MLS000536225], the concentration for a half-maximal effect (EC50) was more than 300 µM.
In the case of `CCOc1ccccc1NC(=O)c1nnn(-c2ccc3c(c2)OCCO3)c1N` [MLS001221013], the EC50 is more than 300 µM.
The figure for `Nc1nc(Nc2ccccc2)nc(N2CCOCC2)c1[N+](=O)[O-]` [SMR000219795] is 20.3 µM; for `Nc1ncnc(N(c2ccccc2)C2CCCCC2)c1[N+](=O)[O-]` [N-cyclohexyl-5-nitro-N-phenyl-4,6-pyrimidinediamine] it is more than 300 µM; for `COc1ccccc1-c1coc2c(CN(C)C)c(O)ccc2c1=O` [8-[(dimethylamino)methyl]-7-hydroxy-3-(2-methoxyphenyl)chromen-4-one] it is more than 300 µM.
In turn, `Cc1cn(C2OC(COC(=O)c3ccccc3)C(O)C2O)c(=O)[nH]c1=O` (stereo not drawn) [benzoic acid [3,4-dihydroxy-5-(5-methyl-2,4-dioxo-1-pyrimidinyl)-2-oxolanyl]methyl ester] had a concentration for a half-maximal effect (EC50) of 19.2 µM.
Turning to `COc1ccc(-c2nn(CCC#N)cc2CN=O)cc1`, the response was half-maximal at 86.3 µM (EC50).
The figure for `O=C(NCc1ccccn1)c1ccc(Cn2cc(Br)cn2)o1` [SMR000073000] is more than 300 µM; for `c1ccc(-c2nc(NCc3cccnc3)c3ccccc3n2)cc1` it is more than 300 µM.
`Cc1ccc(NC2=CC(=O)CC(C)(C)C2)cc1F` [MLS001198284] showed a concentration for a half-maximal effect (EC50) of more than 300 µM.
The molecule `Cc1ccc(CNc2nc(N)c([N+](=O)[O-])c(NCCO)n2)cc1` displayed an EC50 of 117 µM.
For the molecule `CNc1nc(N)c(C(=O)C(C)(C)C)s1` [MLS000050680], the EC50 is more than 300 µM.
For `CCCN(CCC)Cc1c(C(=O)NN=C/C(C)=C\c2ccccc2)nnn1-c1nonc1N` [1-(4-azanyl-1,2,5-oxadiazol-3-yl)-5-[(dipropylamino)methyl]-N-[[(Z)-2-methyl-3-phenyl-prop-2-enylidene]amino]-1,2,3-triazole-4-carboxamide], the EC50 is more than 300 µM.
Turning to `Fc1ccccc1CSc1nnc(-c2ccccc2)o1` [MLS000063511], the concentration for a half-maximal effect (EC50) was more than 300 µM.
The figure for `CC(C)c1ccc(C=NNC(=O)c2nnn(-c3nonc3N)c2CN2CCOCC2)cc1` [SMR000646507] is more than 300 µM; for `Nc1nc(NCCCN2CCOCC2)nc(Nc2cccc(F)c2)c1[N+](=O)[O-]` [SMR000436037] it is 87.5 µM.
`CCCn1nc(NC(=O)c2cccs2)c2cc3cccc(C)c3nc21` came in with a concentration giving a half-maximal response (EC50) of more than 300 µM.
The figure for `Cc1cccc(Nc2nc(NCC3CCCO3)nc(N)c2[N+](=O)[O-])c1` (stereo not drawn) [5-Nitro-N-(tetrahydro-furan-2-ylmethyl)-N'-m-tolyl-pyrimidine-2,4,6-triamine] is 4.11 µM.
`CCSc1nc(N)c2c3c(sc2n1)CN(C)CC3` [MLS000082600]: the EC50 is more than 300 µM.
Molecule `O=C(CN1C(=O)CCC1=O)Nc1ccc(Br)cc1` [N-(4-bromophenyl)-2-(2,5-dioxo-1-pyrrolidinyl)acetamide] had an EC50 of more than 300 µM.
`CCN(CC)Cc1c(C(=O)NN=Cc2cccnc2)nnn1-c1nonc1N` [1-(4-amino-1,2,5-oxadiazol-3-yl)-5-(diethylaminomethyl)-N-(3-pyridinylmethylideneamino)-4-triazolecarboxamide] displayed an EC50 of 9.17 µM.
The molecule `CN1CCN(/N=C/c2ccc(-c3ccc([N+](=O)[O-])cc3Cl)o2)CC1` [1-[5-(2-chloro-4-nitrophenyl)-2-furanyl]-N-(4-methyl-1-piperazinyl)methanimine] had an EC50 of more than 300 µM.
Molecule `N#CCCn1cc(C(CC(=O)c2ccccc2)C(=O)O)c2ccccc21` (stereo not drawn) [MLS000049352] came in with an EC50 of more than 300 µM.
In turn, `O=c1oc(-c2cccs2)nc2sc3c(c12)CCCCC3` yielded a 50% effective concentration (EC50) of more than 300 µM.
`CC1CN(c2nc(Nc3ccccc3)nc(N)c2[N+](=O)[O-])CC(C)O1` (stereo not drawn) gave an EC50 of 35.9 µM.
Molecule `CC1(C)CC(=O)C=C(NCc2ccccc2)C1` [SMR000186728] displayed an EC50 of more than 300 µM.
The molecule `CCCCc1cc(=O)oc2cc(OCC(=O)N(CC)CC)ccc12` returned an EC50 of more than 300 µM.
`CC(=O)c1coc2ccc(OCC(=O)O)cc12` [2-[(3-acetyl-5-benzofuranyl)oxy]acetic acid] displayed a half-maximal effective concentration (EC50) of 56.6 µM.
The figure for `O=C1NC(c2ccncc2)Nc2sc3c(c21)CCCC3` (stereo not drawn) is more than 300 µM; for `Nc1nc(NCc2ccccc2)nc(Nc2cccc(F)c2)c1[N+](=O)[O-]` [N-Benzyl-N'-(3-fluoro-phenyl)-5-nitro-pyrimidine-2,4,6-triamine] it is 108 µM; for `N#Cc1c(Cl)nc(-c2cccnc2)nc1-c1ccccc1` [MLS001165453] it is more than 300 µM.
`Nc1nnc(CC(=O)NN=Cc2ccccc2OCc2ccc(F)cc2)s1` [SMR000420435] showed a half-maximal effective concentration (EC50) of more than 300 µM.
Take `COCCn1c(SCC(=O)Nc2nc(C)c(Cl)cc2Cl)nc2ccccc21` [N-[3,5-bis(chloranyl)-6-methyl-pyridin-2-yl]-2-[1-(2-methoxyethyl)benzimidazol-2-yl]sulfanyl-ethanamide]: the EC50 was more than 300 µM.
The molecule `COc1ccc(/C=C/C(=O)NC2CCN(Cc3ccccc3)CC2)cc1OC` [(E)-N-(1-benzylpiperidin-4-yl)-3-(3,4-dimethoxyphenyl)prop-2-enamide] returned an EC50 of more than 300 µM.
Consider `COc1cccc2c1cc1c(=O)n(CC(=O)NC3CCCCC3)nc(C)n12` [N-cyclohexyl-2-(9-methoxy-4-methyl-1-oxidanylidene-[1,2,4]triazino[4,5-a]indol-2-yl)ethanamide], for which the 50% effective concentration (EC50) is more than 300 µM.
`O=C1c2ccccc2-c2onc3ccc(NCCCn4ccnc4)c1c23` [SMR000044769]: the EC50 was found to be 167 µM.
Molecule `COc1c(CC=C(C)C)cc([C@@H]2CC(=O)c3c(O)cc(O)cc3O2)cc1CC=C(C)C` [abyssinone-V-4'-O-methyl ether] had an EC50 of more than 300 µM.
`CCOC(=O)C1C(C)=Nc2ncnn2C1c1ccc2c(c1)OCO2` (stereo not drawn) displayed an EC50 of more than 300 µM.
In turn, `COc1ccccc1-c1cc(=O)c2c(O)ccc([N+](=O)[O-])c2o1` [MLS000518626] gave a 50% effective concentration (EC50) of more than 300 µM.
`CCSc1nc(N)nc(-c2cccs2)c1C#N` [2-amino-4-ethylsulfanyl-6-thiophen-2-ylpyrimidine-5-carbonitrile] had an EC50 of more than 300 µM.
With `CC(CC(=O)Nc1ccc(F)c([N+](=O)[O-])c1)c1ccccc1` (stereo not drawn), the EC50 was more than 300 µM.
In turn, `O=C(NCC(c1ccco1)N1CCN(c2ccc(F)cc2)CC1)c1ccc2c(c1)OCO2` (stereo not drawn) [N-[2-[4-(4-fluorophenyl)-1-piperazinyl]-2-(2-furanyl)ethyl]-1,3-benzodioxole-5-carboxamide] yielded a concentration giving a half-maximal response (EC50) of more than 300 µM.
`CC1CCCC(C)N1C(=O)CN1C(=O)C(C)(C)Oc2ccc(C(=O)NC3CCCC3)cc21` (stereo not drawn) showed an EC50 of more than 300 µM.
The molecule `COc1ccc(Nc2nc(N)c([N+](=O)[O-])c(NCc3ccccc3)n2)cc1` [MLS000332775] showed a concentration for a half-maximal effect (EC50) of 10.1 µM. This counts as double-digit micromolar.
Regarding `COc1ccc(Nc2nc(N)c(C(=O)c3ccc(OC)cc3)s2)cc1` [{4-amino-2-[(4-methoxyphenyl)amino]-1,3-thiazol-5-yl}(4-methoxyphenyl)methanone], the concentration giving a half-maximal response (EC50) worked out at 0.313 µM.
For the molecule `COc1cc(C(=O)N2CCN(c3ccccn3)CC2)cc(OC)c1OC` [SMR000518691], the 50% effective concentration (EC50) is 45.9 µM.
The figure for `O=c1[nH]c(N=NCc2ccccc2)nc2ccccc12` [MLS000571403] is more than 300 µM.
For `O=Cc1ccc(Oc2nc(Cl)ncc2F)cc1` [4-[(2-chloro-5-fluoro-4-pyrimidinyl)oxy]benzaldehyde], the concentration for a half-maximal effect (EC50) is more than 300 µM.
For `C=CCN(c1ccc(C(=O)Nc2ccc(C)c(C)c2)cc1)S(C)(=O)=O` [N-(3,4-dimethylphenyl)-4-[methylsulfonyl(prop-2-enyl)amino]benzamide], the concentration for a half-maximal effect (EC50) is more than 300 µM.
The figure for `Cc1ccc(NC(=O)NCCCN2CCCC2=O)cc1C` [SMR000677961] is more than 300 µM; for `CCOc1ccc(Nc2nc(N)c([N+](=O)[O-])c(NCc3ccccc3)n2)cc1` [N'-Benzyl-N-(4-ethoxy-phenyl)-5-nitro-pyrimidine-2,4,6-triamine] it is more than 300 µM; for `O=C(O)c1ccccc1Nc1ccccc1C(=O)O` [2-[(2-carboxyphenyl)amino]benzoic acid] it is more than 300 µM.
`Cc1ccc(OCC(=O)NN=Cc2ccccc2)c([N+](=O)[O-])c1` [2-(4-methyl-2-nitro-phenoxy)-N-[(phenylmethylidene)amino]ethanamide] came in with a concentration for a half-maximal effect (EC50) of more than 300 µM.
Take `CSc1nc2ncc3c(n2n1)CC1c2ccccc2CCN1C3=O` (stereo not drawn) [SMR000169664]: the response was half-maximal at 46.3 µM (EC50).
As to `Cc1ccc(C(=O)O/N=C(\N)c2ccccn2)c(Cl)c1` [MLS001206211], the EC50 amounted to 26.2 µM.
Molecule `O=C(COc1ccccc1)N1CCN(S(=O)(=O)c2cccs2)CC1` [1-(phenoxyacetyl)-4-(2-thienylsulfonyl)piperazine] gave an EC50 of more than 300 µM.
Molecule `COc1ccccc1Nc1nc(NCCCN(C)C)nc(N)c1[N+](=O)[O-]` [N2-[3-(dimethylamino)propyl]-N4-(2-methoxyphenyl)-5-nitro-pyrimidine-2,4,6-triamine] had an EC50 of 2.13 µM. That is a single-digit micromolar value.
Molecule `O=C(OCCCN1CCCCC1)c1ccc(O)cc1` [3-piperidin-1-ylpropyl 4-hydroxybenzoate] had a concentration giving a half-maximal response (EC50) of more than 300 µM.
Consider `Cc1ccc([N+](=O)[O-])cc1/N=C1\C(=O)Nc2ccccc21`, for which the concentration giving a half-maximal response (EC50) is more than 300 µM.
On to `O=C(Nc1ccnc(-c2cccnc2)n1)c1ccc(Cl)c(Cl)c1` [MLS000327684], for which the EC50 was more than 300 µM.
Regarding `COc1cc(/C=C/c2nc3ccc([N+](=O)[O-])cc3s2)ccc1OCC(=O)O` [SMR000365317], the EC50 was more than 300 µM.
On to `O=C1N=C(S)SC1=Cc1ccc(N2CCOCC2)o1`, for which the EC50 amounted to 8.5 µM.
The figure for `CN1CCN(c2ccccc2NC(=O)c2ccc(Br)o2)CC1` [5-bromanyl-N-[2-(4-methylpiperazin-1-yl)phenyl]furan-2-carboxamide] is 19.3 µM.

(Values after BindingDB's records for doi:10.7270/Q2TX3CTT (Broad Institute, 2010).)
